In paper PMC3722118, “Hellebrin and its aglycone form hellebrigenin display similar in vitro growth inhibitory effects in cancer cells and binding profiles to the alpha subunits of the Na^+/K^+-ATPase” (Molecular Cancer, 2013):
Read-outs that look alike come from different tables or passages of the source.

Legend:
human α2β1 NaK complex = target: T1, human α2β1 NaK complex (Homo sapiens, UniProt P50993); assay: 3H-ouabain competitive displacement on P. pastoris membranes; format: binding; conditions: for Kd: 3H-ouabain displacement, three independent experiments, read-out: Affinity (nM) α-2 (KD ± SEM); for Selectivity α-1 / α-2: ratio of KD α-1 to KD α-2
T1 construct: made in house; host or cells: Pichia pastoris strain SMD1165 (membranes)
Description: (§1) K0.5 was calculated using a one site inhibition model: B/BCG=0 = K0.5/([CG] + K0.5). […] Binding of each cardiac glycoside was estimated in 3 separate experiments.
(§2) Average KD or Ki values ± SEM for each isoform were calculated. Statistical significance was calculated by the unpaired Students t-test. P values <0.05 were considered significant.

human α3β1 NaK complex = target: T2, human α3β1 NaK complex (Homo sapiens, UniProt P13637); assay: as above; format: binding; conditions: for Kd: 3H-ouabain displacement, three independent experiments, read-out: Affinity (nM) α-3 (KD ± SEM); for Selectivity α-1 / α-3: ratio of KD α-1 to KD α-3
T2 construct: made in house; host or cells: Pichia pastoris strain SMD1165 (membranes)
Description: as §1, §2

human α1β1 NaK complex = target: T3, human α1β1 NaK complex (Homo sapiens, UniProt P05023); assay: as above; format: binding; conditions: for Kd: 3H-ouabain displacement, three independent experiments, read-out: Affinity (nM) α-1 (KD ± SEM); for fold higher affinity for α1 than for the α2 and α3 subunits: from Table 2 KD values
T3 construct: made in house; host or cells: Pichia pastoris strain SMD1165 (membranes)
Description: as §1, §2

NHDF fibroblasts = assay: MTT growth inhibition in non-cancerous control cell line; format: cell-based; conditions: normal human fibroblasts, read-out: in vitro growth inhibitory effects (IC50) in NHDF fibroblasts
Description: The histological types and origins of the eight human cancer cell lines that were used for the MTT colorimetric assay are detailed in the legend of Table 1. Two mouse cancer cell lines were also used, the CT26.WT colon cancer cell line (ATCC code CRL-2638) and the B16F10 melanoma cell line (ATCC code CRL-6475). Both cell lines were obtained from the American Type Culture Collection (ATCC, Manassas, VA). A control cell line (human NHDF fibroblasts) was obtained from PromoCell (code c-12300; Heidelberg, Germany). The cell lines detailed in Figure 2A are a generous gift from the National Cancer Institute (NCI, Bethesda, USA) to Steven Karlish’s lab.
The cancer cells were cultured in RPMI (Lonza, Verviers, Belgium) medium supplemented with 10% heat-inactivated fetal calf serum (Lonza). All culture media were supplemented with 4 mM glutamine, 100 μg/mL gentamicin, 200 U/mL penicillin and 200 μg/mL streptomycin (Lonza). The NHDF fibroblasts were cultured in Lonza medium cc3132 KT FGM-2 BulletKit.
The overall growth level of the human cancer cell lines was determined using a colorimetric MTT (3-(4,5-dimethylthiazol-2yl)-2,5-diphenyltetrazolium bromide, Sigma, Belgium) assay as detailed previously. Briefly, this test measures the number of metabolically active (thus living) cells that are able to transform the yellow MTT into the blue formazan dye via a mitochondrial reduction involving succinate dehydrogenase. The amount of formazan obtained at the end of the experiment (measured by spectrophotometry) is directly proportional to the number of living cells. The determination of the optical density in the control compared to the treated cells therefore enables quantitative measurements of the effects of compounds on the growth of normal as well as cancer cells in vitro.
Each experimental condition was performed in six replicates.

[1] = tested on: human cancer cells (A549, U373, Hs683, T98G, MCF-7, SKMEL-28, PC-3, HT-29); assay: MTT growth inhibition, mean over the eight human cancer cell lines; format: cell-based; conditions: read-out: IC50 (nM) Mean ± SEM
Method in brief: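 In six-replicate experiments, the effect on growth was taken from formazan optical density relative to untreated cells after MTT reduction. Cells grew in RPMI supplemented with heat-inactivated FCS at 10%.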

[2] = tested on: KB-3-1 and ABCB1-overexpressing KB-C-1 cells; assay: MTT viability, MDR model; format: cell-based, human; conditions: 72 hours
Description: (§3) The following human cancer cell lines and their chemoresistant sublines were used in this study: the colon carcinoma cell line HCT-116 p53/wt and the p53 knock-out cell line HCT-116 p53/ko (generously donated by B. Vogelstein, Johns Hopkins University, Baltimore, MD, USA); the epidermal carcinoma-derived cell line KB-3-1 and the ABCB1-overexpressing subline KB-C-1 (generously donated by D.W. Shen, Bethesda, USA); the small cell lung carcinoma cell line GLC-4 and the ABCC1- and LRP-overexpressing subline GLC-4/ADR (from E.G. de Vries, Groningen, Netherlands); the ovarian carcinoma cell line A2780 and the cisplatin resistant subline A2780cis (purchased from Sigma-Aldrich); and the promyelocytic leukemia cell line HL60 and the mitoxantrone resistant subline HL60/mx (generously donated by G. Harker, Salt Lake City, USA). All cell lines were grown in RPMI 1640 supplemented with 10% fetal bovine serum with the exception of the HCT-116 cells, which were grown in McCoy’s medium with 10% serum.
(§4) Figure 4 Impact of different MDR mechanisms on the cytotoxicity of hellebrigenin. […] Viability was determined using a 3-(4,5-dimethythiazol-2-yl)-2,5-diphenyltetrazolium bromide (MTT) colorimetric assay. […]

[3] = tested on: GLC-4 and ABCC1- and LRP-overexpressing GLC-4/ADR small cell lung carcinoma cells; assay: MTT viability, MDR model; format: cell-based, human; conditions: 72 hours
Description: as §3, §4

U373 GBM cells = conditions: 10 nM
Description: Computer-assisted phase contrast microscopy (quantitative videomicroscopy) analyses were used to morphologically visualize the effects induced by hellebrin (data not shown) and hellebrigenin (Figure 5) in human U373 GBM cells.
Figure 5 Computer-assisted phase-contrast microscopy (quantitative videomicroscopy) illustrations of human U373 glioblastoma cells treated with 10 nM hellebrigenin for 72 h. […] Cells were not starved during the experiments. The images provided here are representative images obtained from triplicates in each experimental condition.

Row | SMILES | Kd (human α2β1 NaK complex) [nM] | Selectivity α-1 / α-2 (human α2β1 NaK complex) | Kd (human α3β1 NaK complex) [nM] | Selectivity α-1 / α-3 (human α3β1 NaK complex) | Kd (human α1β1 NaK complex) [nM] | fold higher affinity for α1 than for the α2 and α3 subunits (human α1β1 NaK complex) | IC50 (NHDF fibroblasts; NHDF) [nM] | IC50 ([1]; Homo sapiens, 72 h) [nM] | sensitivity of KB-C-1 compared to parental cell line [2] | sensitivity of GLC4/ADR compared to parental cell line [3] | IC50 (NHDF fibroblasts) [nM] | U373 GBM cells died (U373 GBM cells; 72 h of treatment) | cytotoxic versus cytostatic nature (morphological analyses) (U373 GBM cells; up to 72 h) | IC50 ([1]; mean over eight human cancer cell lines, three days of culture) [nM]
1 | C[C@@H]1O[C@@H](O[C@H]2CC[C@]3(C=O)[C@H]4CC[C@]5(C)[C@@H](c6ccc(=O)oc6)CC[C@]5(O)[C@@H]4CC[C@]3(O)C2)[C@H](O)[C@H](O)[C@H]1O[C@@H]1O[C@H](CO)[C@@H](O)[C@H](O)[C@H]1O [Hellebrin] | 218 ± 52 | 0.4 | 175 ± 20 | 0.5 | 86 ± 18 | ~ 2 fold | > 10000 | 28 ± 7 | – | – | – | – | – | –
2 | C[C@]12CC[C@H]3[C@@H](CC[C@]4(O)C[C@@H](O)CC[C@]34C=O)[C@@]1(O)CC[C@@H]2c1ccc(=O)oc1 [Hellebrigenin] | 198 ± 51 | 0.5 | 191 ± 23 | 0.5 | 103 ± 19 | ~ 2 fold | – | – | equally sensitive | equally sensitive | > 10000 | approximately 50% | cytotoxic compound and not a cytostatic one | 16 ± 5
